Values of other authors in US9655859B2, “Accordion pill comprising levodopa for an improved treatment of Parkinson's disease symptoms” (INTEC PHARMA LTD., priority 2010, dated 2017).

Target: T1, peripheral DOPA decarboxylase (Homo sapiens, UniProt P20711)
T1 construct: host or cells: endogenous enzyme of peripheral tissues in vivo
T1 sequence (P20711 1-480): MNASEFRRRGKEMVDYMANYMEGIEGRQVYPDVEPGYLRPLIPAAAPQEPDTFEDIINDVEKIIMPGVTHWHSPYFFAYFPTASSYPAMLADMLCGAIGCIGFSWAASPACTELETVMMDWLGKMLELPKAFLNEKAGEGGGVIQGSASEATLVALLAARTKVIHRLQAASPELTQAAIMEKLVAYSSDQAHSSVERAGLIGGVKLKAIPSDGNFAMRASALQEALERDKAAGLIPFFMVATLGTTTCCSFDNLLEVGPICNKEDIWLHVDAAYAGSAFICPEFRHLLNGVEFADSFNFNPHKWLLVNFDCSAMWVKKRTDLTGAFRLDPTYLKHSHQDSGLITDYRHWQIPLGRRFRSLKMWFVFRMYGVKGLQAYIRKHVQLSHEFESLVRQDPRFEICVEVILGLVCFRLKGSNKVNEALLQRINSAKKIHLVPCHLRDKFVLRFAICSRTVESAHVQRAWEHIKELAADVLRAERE
Details: studies cited

carbidopa amount saturating peripheral DOPA decarboxylase: 70 to 100 mg a day
SMILES: C[C@@](Cc1ccc(O)c(O)c1)(NN)C(=O)O [carbidopa]
